In ChEMBL document CHEMBL5338783, “Discovery of an Anti-TNF-α 9-mer Peptide from a T7 Phage Display Library for the Treatment of Inflammatory Bowel Disease” (J Med Chem, 2023):
The source made the active and inactive calls. The calls are words filed in the database; no cut-off is given here. Peptide text beside a SMILES is read from it.

How the values were obtained:
Mus musculus [1] = assay: Anti-colitis activity against DSS-induced acute colitis in C57BL/6 mouse model assessed as reduction in colon length at 0.5 to 1 mg/kg, ip daily for 11 days; type: functional, organism-based; details: dose 0.5-1 mg/kg, time 11.0 day
RAW264.7 [2] = assay: Antiinflammatory activity in LPS-stimulated mouse RAW264.7 cells assessed as inhibition of ERK1/2 phosphorylation incubated for 3 hrs by Western blot analysis; type: functional, cell-based; details: dose 25-100 µM
RAW264.7 [3] = assay: Antiinflammatory activity in mouse RAW264.7 cells assessed as decrease in LPS-stimulated IL-6 protein expression incubated for 3 hrs by flow cytometry; type: functional, cell-based; details: dose 25-100 µM
BMDM [4] = assay: Antiinflammatory activity in mouse BMDM cells assessed as decrease in LPS-stimulated TNF-alpha mRNA level incubated for 3 hrs by RT-qPCR analysis; type: functional, cell-based; details: dose 25-100 µM
Mus musculus [5] = assay: Antiinflammatory activity against DSS-induced acute colitis in C57BL/6 mouse model assessed as decrease in IkappaBalpha phosphorylation in colon tissue administered intraperitoneally daily for 7 days by Western blot analysis; type: functional, organism-based; details: dose 0.5-1 mg/kg, route ip, time 7.0 day
Mus musculus [6] = assay: Anti-colitis activity against DSS-induced acute colitis in C57BL/6 mouse model assessed as […] in IFN-gamma mRNA level at 0.5 to 1 mg/kg, ip daily for 7 days by RT-qPCR analysis; type: functional, organism-based; details: dose 0.5-1 mg/kg, time 7.0 day
Mus musculus [7] = assay: Anti-colitis activity against DSS-induced acute colitis in C57BL/6 mouse model assessed as decrease in disease activity index at 0.5 to 1 mg/kg, ip daily for 7 days; type: functional, organism-based; details: dose 0.5-1 mg/kg, time 7.0 day
Mus musculus [8] = assay: Anti-colitis activity against DSS-induced acute colitis in C57BL/6 mouse model assessed as increase in spleen index at 0.5 to 1 mg/kg, ip daily for 7 days; type: functional, organism-based; details: dose 0.5-1 mg/kg, time 7.0 day
Mus musculus [9] = assay: Anti-colitis activity against DSS-induced acute colitis in C57BL/6 mouse model assessed as reduction in colonic epithelial disruption at 0.5 to 1 mg/kg, ip daily for 11 days by H and E staining based analysis; type: functional, organism-based; details: dose 0.5-1 mg/kg, time 11.0 day
RAW264.7 [10] = assay: Antiinflammatory activity in mouse RAW264.7 cells assessed as decrease in LPS-stimulated TNF-alpha protein expression incubated for 3 hrs by flow cytometry; type: functional, cell-based; details: dose 25-100 µM
RAW264.7 [11] = assay: Disruption of NF-kappaB/p65 nuclear import in LPS-stimulated mouse RAW264.7 cells preincubated for 30 mins followed by LPS stimulation measured after 3 hrs by immunofluorescence based microscopy; type: functional, cell-based
Mus musculus [12] = assay: Anti-colitis activity against DSS-induced acute colitis in C57BL/6 mouse model assessed as decrease in disease activity index at 0.5 to 1 mg/kg, ip daily for 11 days; type: functional, organism-based; details: dose 0.5-1 mg/kg, time 11.0 day
Mus musculus [13] = assay: Anti-colitis activity against DSS-induced acute colitis in C57BL/6 mouse model assessed as reversal of body weight loss at 0.5 to 1 mg/kg, ip daily for 11 days; type: functional, organism-based; details: dose 0.5-1 mg/kg, time 11.0 day
RAW264.7 [14] = assay: Antiinflammatory activity in LPS-stimulated mouse RAW264.7 cells assessed as inhibition of p38 phosphorylation incubated for 3 hrs by Western blot analysis; type: functional, cell-based; details: dose 25-100 µM
L929 = assay: Cytotoxicity against mouse L929 cells upto 1000 uM; type: toxicity, cell-based; details: l929, 1000 µM
RAW264.7 [15] = assay: Antiinflammatory activity in mouse RAW264.7 cells assessed as decrease in LPS-stimulated IL-6 mRNA level at 25 to 100 uM incubated for 3 hrs by RT-qPCR analysis; type: functional, cell-based; details: dose 25-100 µM
[16] = molecular target: T1, Tumor necrosis factor receptor superfamily member 1A (Homo sapiens) (UniProt P19438); assay: Inhibition of TNF-alpha (unknown origin) binding to TNFR1 by SPR analysis
T1 sequence (whole entry): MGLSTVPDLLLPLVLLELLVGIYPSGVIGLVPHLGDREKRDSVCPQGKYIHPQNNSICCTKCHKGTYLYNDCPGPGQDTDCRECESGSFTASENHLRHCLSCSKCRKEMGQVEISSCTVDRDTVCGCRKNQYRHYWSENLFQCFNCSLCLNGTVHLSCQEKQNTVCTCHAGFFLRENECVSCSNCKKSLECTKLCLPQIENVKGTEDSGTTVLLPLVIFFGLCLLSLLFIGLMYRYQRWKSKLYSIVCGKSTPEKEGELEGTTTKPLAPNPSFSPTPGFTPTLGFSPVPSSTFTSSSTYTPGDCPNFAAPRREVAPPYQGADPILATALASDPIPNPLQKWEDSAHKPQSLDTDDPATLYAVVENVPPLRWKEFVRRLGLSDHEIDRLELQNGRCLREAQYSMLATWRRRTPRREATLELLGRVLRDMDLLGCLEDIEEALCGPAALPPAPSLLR

Mus musculus [17] = assay: Anti-colitis activity against DSS-induced acute colitis in C57BL/6 mouse model assessed as […] in IL-1beta mRNA level at 0.5 to 1 mg/kg, ip daily for 7 days by RT-qPCR analysis; type: functional, organism-based; details: dose 0.5-1 mg/kg, time 7.0 day
RAW264.7 [18] = assay: Antiinflammatory activity in mouse RAW264.7 cells assessed as decrease in LPS-stimulated IL-1beta protein expression incubated for 3 hrs by flow cytometry; type: functional, cell-based; details: dose 25-100 µM
Mus musculus [19] = assay: Anti-colitis activity against DSS-induced acute colitis in C57BL/6 mouse model assessed as reduction in colon length at 0.5 to 1 mg/kg, ip daily for 7 days; type: functional, organism-based; details: dose 0.5-1 mg/kg, time 7.0 day
Mus musculus [20] = assay: Anti-colitis activity against DSS-induced acute colitis in C57BL/6 mouse model assessed as protection of body weight loss at 0.5 to 1 mg/kg, ip daily for 7 days; type: functional, organism-based; details: dose 0.5-1 mg/kg, time 7.0 day
Mus musculus [21] = assay: Antiinflammatory activity against DSS-induced acute colitis in C57BL/6 mouse model assessed as decrease in JNK1/2 phosphorylation in colon tissue administered intraperitoneally daily for 7 days by Western blot analysis; type: functional, organism-based; details: dose 0.5-1 mg/kg, route ip, time 7.0 day
RAW264.7 [22] = assay: Antiinflammatory activity in mouse RAW264.7 cells assessed as decrease in LPS-stimulated IFN-gamma protein expression incubated for 3 hrs by flow cytometry; type: functional, cell-based; details: dose 25-100 µM
BMDM [23] = assay: Antiinflammatory activity in LPS-stimulated mouse BMDM cells assessed as inhibition of NF-kappaB signalling pathway incubated for 3 hrs by Western blot analysis; type: functional, cell-based; details: dose 25-100 µM
RAW264.7 [24] = assay: Antiinflammatory activity in LPS-stimulated mouse RAW264.7 cells assessed as inhibition of IkappaBalpha phosphorylation incubated for 3 hrs by Western blot analysis; type: functional, cell-based; details: dose 25-100 µM
RAW264.7 [25] = assay: Cytotoxicity against mouse RAW264.7 cells upto 1000 uM; type: toxicity, cell-based; details: raw264.7, 1000 µM
Mus musculus [26] = assay: Anti-colitis activity against DSS-induced acute colitis in C57BL/6 mouse model assessed as […] in IL-6 mRNA level at 0.5 to 1 mg/kg, ip daily for 7 days by RT-qPCR analysis; type: functional, organism-based; details: dose 0.5-1 mg/kg, time 7.0 day
RAW264.7 [27] = assay: Antiinflammatory activity in mouse RAW264.7 cells assessed as decrease in LPS-stimulated IFN-gamma mRNA level at 25 to 100 uM incubated for 3 hrs by RT-qPCR analysis; type: functional, cell-based; details: dose 25-100 µM
Tumor necrosis factor = Tumor necrosis factor (Homo sapiens, UniProt P01375); assay: Binding affinity to recombinant TNF-alpha (unknown origin) assessed as dissociation constant incubated for 10 mins by MST assay
Mus musculus [28] = assay: Anti-colitis activity against DSS-induced acute colitis in C57BL/6 mouse model assessed as increase in body weight value at 1 mg/kg, ip daily for 7 days; type: functional; details: time 7 day
Mus musculus [29] = assay: Anti-colitis activity against DSS-induced acute colitis in C57BL/6 mouse model assessed as reduction in granulocyte infiltration in colon at 0.5 to 1 mg/kg, ip daily for 11 days by H and E staining based analysis; type: functional, organism-based; details: dose 0.5-1 mg/kg, time 11.0 day

Sequence of Tumor necrosis factor (P01375 whole entry): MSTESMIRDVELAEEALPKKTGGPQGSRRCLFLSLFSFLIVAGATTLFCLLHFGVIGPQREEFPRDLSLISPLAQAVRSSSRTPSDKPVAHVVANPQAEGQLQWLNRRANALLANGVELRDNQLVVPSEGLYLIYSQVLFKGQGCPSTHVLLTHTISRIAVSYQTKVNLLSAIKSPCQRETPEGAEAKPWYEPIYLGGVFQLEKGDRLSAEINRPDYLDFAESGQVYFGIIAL

**Q.** What does the source list for C[C@H](N)C(=O)N[C@@H](CS)C(=O)N[C@@H](Cc1cnc[nH]1)C(=O)N[C@@H](C)C(=O)N[C@@H](Cc1c[nH]c2ccccc12)C(=O)N[C@@H](C)C(=O)N1CCC[C@H]1C(=O)N[C@H](C(=O)N[C@@H](CCCNC(=N)N)C(=O)O)[C@@H](C)O (H-ACHAWAPTR-OH)?
**A.** Activity (Mus musculus [1]): Active; Activity (RAW264.7 [2]): Dose-Dependent Effect; Activity (RAW264.7 [3]): Dose-Dependent Effect; Activity (BMDM [4]): Dose-Dependent Effect; Activity (Mus musculus [5]): Dose-Dependent Effect; Activity (Mus musculus [6]): Active; Activity (Mus musculus [7]): Active; Activity (Mus musculus [8]): Active; Activity (Mus musculus [9]): Active; Activity (RAW264.7 [10]): Dose-Dependent Effect; Activity (RAW264.7 [11]): Dose-Dependent Effect; Activity (Mus musculus [12]): Active; Activity (Mus musculus [13]): Active; Activity (RAW264.7 [14]): Dose-Dependent Effect; Activity (L929): Non-Toxic; Activity (RAW264.7 [15]): Dose-Dependent Effect; inhibition [16]: Active; Activity (Mus musculus [17]): Active; Activity (RAW264.7 [18]): Dose-Dependent Effect; Activity (Mus musculus [19]): Active; Activity (Mus musculus [20]): Active; Activity (Mus musculus [21]): Dose-Dependent Effect; Activity (RAW264.7 [22]): Dose-Dependent Effect; Activity (BMDM [23]): Dose-Dependent Effect; Activity (RAW264.7 [24]): Dose-Dependent Effect; Activity (RAW264.7 [25]): Non-Toxic; Activity (Mus musculus [26]): Active; Activity (RAW264.7 [27]): Dose-Dependent Effect; Kd (Tumor necrosis factor): 5.14 µM; Activity (Mus musculus [28]): 0.24; Activity (Mus musculus [29]): Active
